Assay results as given in US20250154212A1, “METHOD OF DISRUPTING MEMORY AND LIPOPEPTIDE FOR USE IN SUCH METHOD” (The Research Foundation for The State University of New York, priority 2023, published 2025).
Where no end group is shown, it is not given here. The star is where a group is joined. Myristoyl = CCCCCCCCCCCCCC(=O)*

Biological target: T1, KIBRA-PKCι/λ interaction (Homo sapiens, UniProt P41743)
T1 construct: expressed in transfected cells; host or cells: HEK293T
T1 sequence (P41743 10-596): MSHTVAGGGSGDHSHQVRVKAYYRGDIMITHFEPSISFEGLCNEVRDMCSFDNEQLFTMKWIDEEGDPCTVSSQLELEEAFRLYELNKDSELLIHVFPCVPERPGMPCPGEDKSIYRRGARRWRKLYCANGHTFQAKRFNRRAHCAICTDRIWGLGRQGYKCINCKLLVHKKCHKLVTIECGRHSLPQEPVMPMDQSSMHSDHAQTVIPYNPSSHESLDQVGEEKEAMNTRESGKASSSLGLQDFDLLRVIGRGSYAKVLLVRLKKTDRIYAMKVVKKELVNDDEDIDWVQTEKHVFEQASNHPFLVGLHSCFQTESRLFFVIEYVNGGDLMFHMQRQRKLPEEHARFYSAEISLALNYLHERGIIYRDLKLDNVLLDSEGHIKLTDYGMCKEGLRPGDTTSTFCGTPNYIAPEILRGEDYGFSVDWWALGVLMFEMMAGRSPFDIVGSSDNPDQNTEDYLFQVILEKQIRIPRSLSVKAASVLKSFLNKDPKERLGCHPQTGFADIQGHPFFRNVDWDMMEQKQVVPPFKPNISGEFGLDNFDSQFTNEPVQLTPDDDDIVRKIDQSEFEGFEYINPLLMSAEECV
Test: BiFC assay of KIBRA-PKCι/λ interaction in HEK293T cells
Format: cell-based
Settings: 10 μM
Method: KIBRA-PKMζ BiFC was performed as previously described (28), using pVen1-FLAG-KIBRA and pVen2-HA-PKMζ, in which PKMζ was cloned between EcoR1 and BamH1 sites. The constructs pVen1 and pVen2 encode the N-terminus (amino acids 1-154) and C-terminus (amino acids 155-238) of the Venus protein, respectively, and the Venus fragments were on the N-terminal of the fusion proteins. pVen2-HA-PKMζ[PKCι/λ-P291Q;F297S] was generated by site-directed mutagenesis using forward-cctggagAagcAAatceggatcccccggtCcctgtccgte and reverse-gacggacaggGaccgggggatccggatTTgctTctccagg primers and the QuickChange II XL Site-Directed Mutagenesis Kit (Agilent Technologies), following manufacturer's instructions. Additional pVen2-HA-PKC isoforms and pVen2-HA-CaMKIIα in the pVen2-HA vector were generated by cloning the N-terminus of the coding sequence of each kinase (table S1) to obtain an in-frame fusion at the C-terminus of the pVen2-HA. Human versions of KIBRA and kinases were used, and all PCR amplified sequences and constructs were verified by DNA sequencing.
HEK293T cells were cultured in Dulbecco's Modified Eagle's Medium supplemented with 10% heat-inactivated fetal bovine serum, 100 U/ml penicillin, […] streptomycin, 2 mM glutamine, and 10 mM HEPES in a T75 tissue culture flask with canted neck and ventilated cap. Twenty-four hours prior to transfection, 1×10^5 HEK293T cells in 1 ml of media were plated on poly-D-lysine-treated coverslips in 24-well plates. One hour prior to transfection, 0.5 ml of the media was removed from each well, and ζ-stat or K-ZAP was added to the media that had been removed. The remaining media in each well was then discarded and substituted with the 0.5 ml pre-conditioned media containing ζ-stat or K-ZAP at designated concentrations. For transfection a total of 50 ng of DNA was delivered to each well using Lipofectamine 3000 (Invitrogen) and OptiMEM 1× reduced serum medium (Invitrogen) at a plasmid-to-plasmid ratio of 1:1. The amount of transfected DNA was optimized to produce relatively low concentrations of proteins during overexpression. […]

Molecule | effect on KIBRA-PKCι/λ interaction (BiFC) (listed as C-stat) | effect on KIBRA-PKCι/λ interaction (BiFC) (listed as z-stat) | effect on KIBRA-PKCι/λ interaction (BiFC)
O=S(=O)(O)c1cc(O)c2c(S(=O)(=O)O)cc(S(=O)(=O)O)cc2c1 [ζ-stat, 1-naphthol-3,6,8-trisulphonic acid] | no measurable effect | has no effects | 
myr-N-FVRNSLERRSVRMKRPS-C (Myristoyl-FVRNSLERRSVRMKRPS) [K-ZAP] |  |  | not measurably affected
